Data from patent publication US11236081B2, “Crystalline salts of corydalmine” (priority 2018, dated 2022).
Several values for one entry are separate records, joined by “and”; a condition that tells them apart may be missing. Identical values can stand only once.

What was measured:
[1] = Pharmacokinetic study: plasma concentration and plasma PK parameters after IV/PO dosing (LC-MS/MS, WinNonlin); assay type: in vivo, Male SD Rat; conditions: for AUCInf / AUClast / AUClast/D / AUC—% Extrap_obs / Cmax / MRTInf_obs / T1/2 / Tmax / AUCInf, Mean / AUClast, Mean / AUClast/D, Mean / AUC—% Extrap_obs, Mean / Cmax, Mean / MRTInf_obs, Mean / T1/2, Mean / Tmax, Mean: plasma
From the text: Pharmacokinetic and Brain Penetration Study
Dose formulation processing during dosing: The dose formulations will be kept at room temperature.
Concentrations of Test Article in the plasma samples will be analyzed using a LC-MS/MS method.
WinNonlin (Phoenix™, version 6.1) or other similar software will be used for pharmacokinetic calculations. The following pharmacokinetic parameters will be calculated, whenever possible from the plasma concentration versus time data:
IV administration: T1/2, C0, AUClast, AUCinf, MRTinf, Cl, Vss, Number of Points for Regression.
PO administration: T1/2, Cmax, Tmax, MRTinf, AUCinf, AUClast, F %, Number of Points for Regression.
The pharmacokinetic data will be described using descriptive statistics such as mean, standard deviation.

[2] = Solubility studies in water at 2 hours; assay type: physicochemical
[3] = Dynamic vapor sorption (DVS), hygroscopicity at 25° C.; assay type: physicochemical; conditions: for hygroscopicity (DVS) / water absorbed in DVS: 25° C.; for water absorbed in DVS: at 80% RH
Description: Dynamic Vapor Sorption (DVS)
DVS was determined using DVS Intrinsic (SMS, UK). Transfer about 20 to 50 mg of the compound into a SMS dynamic vapor sorption model DVS and record the weight change with respect to a varying atmospheric humidity at 25° C.

[4] = male SD rat, PO 10 mg/kg (equal to freebase), 0 h, individual rats, vehicle 20% HP-β-CD in water (POA, freebase) or water (salts)
[5] = male SD rat, PO 10 mg/kg (equal to freebase), 0.25 h, individual rats, vehicle 20% HP-β-CD in water (POA, freebase) or water (salts), 10 mg/kg
[6] = male SD rat, PO 10 mg/kg (equal to freebase), 0.25 h, mean n=3, vehicle 20% HP-β-CD in water (POA, freebase) or water (salts)
[7] = male SD rat, PO 10 mg/kg (equal to freebase), 0.5 h, individual rats, vehicle 20% HP-β-CD in water (POA, freebase) or water (salts), 10 mg/kg
[8] = male SD rat, PO 10 mg/kg (equal to freebase), 0.5 h, mean n=3, vehicle 20% HP-β-CD in water (POA, freebase) or water (salts)
[9] = male SD rat, PO 10 mg/kg (equal to freebase), 1 h, individual rats, vehicle 20% HP-β-CD in water (POA, freebase) or water (salts), 10 mg/kg
[10] = male SD rat, PO 10 mg/kg (equal to freebase), 1 h, mean n=3, vehicle 20% HP-β-CD in water (POA, freebase) or water (salts)
[11] = male SD rat, PO 10 mg/kg (equal to freebase), 2 h, individual rats, vehicle 20% HP-β-CD in water (POA, freebase) or water (salts), 10 mg/kg
[12] = male SD rat, PO 10 mg/kg (equal to freebase), 2 h, mean n=3, vehicle 20% HP-β-CD in water (POA, freebase) or water (salts)
[13] = male SD rat, PO 10 mg/kg (equal to freebase), 4 h, individual rats, vehicle 20% HP-β-CD in water (POA, freebase) or water (salts), 10 mg/kg
[14] = male SD rat, PO 10 mg/kg (equal to freebase), 4 h, mean n=3, vehicle 20% HP-β-CD in water (POA, freebase) or water (salts)
[15] = male SD rat, PO 10 mg/kg (equal to freebase), 8 h, individual rats, vehicle 20% HP-β-CD in water (POA, freebase) or water (salts), 10 mg/kg
[16] = male SD rat, PO 10 mg/kg (equal to freebase), 8 h, mean n=3, vehicle 20% HP-β-CD in water (POA, freebase) or water (salts)
[17] = male SD rat, PO 10 mg/kg (equal to freebase), 24 h, individual rats, vehicle 20% HP-β-CD in water (POA, freebase) or water (salts)
[18] = male SD rat, PO 10 mg/kg (equal to freebase), individual rats, vehicle 20% HP-β-CD in water (POA, freebase) or water (salts), 10 mg/kg
[19] = male SD rat, PO 10 mg/kg (equal to freebase), mean n=3, vehicle 20% HP-β-CD in water (POA, freebase) or water (salts)
[20] = PO (group POE), 10 mg/kg, individual rats R40, R41, R42, 10 mg/kg
[21] = PO (group POE), 10 mg/kg, mean of R40-R42

Question: Which F ([1]; male SD rat, PO 10 mg/kg (equal to freebase) vs IV 3 mg/kg freebase, individual rats, vehicle 20% HP-β-CD in water (POA, freebase) or water (salts)) does the source give for `COc1cc2c(cc1OC)[C@@H]1Cc3ccc(O)c(OC)c3CN1CC2.O=C(O)/C=C\C(=O)O` [TLZ-16 maleate] here?
Answer: 21.7% and 33.4% and 21.3%

Question: And the “F, Mean” value ([1]; male SD rat, PO 10 mg/kg (equal to freebase) vs IV 3 mg/kg freebase, mean n=3, vehicle 20% HP-β-CD in water (POA, freebase) or water (salts))?
Answer: 25.5%

Question: What about the concentration in plasma [1, 4] of the same molecule?
Answer: BLOQ (BLOQ = below limit of quantitation (0.2 ng/mL))

Question: And the concentration in plasma [1, 5]?
Answer: 138 ng/mL and 257 ng/mL and 438 ng/mL

Question: And the “concentration in plasma, Mean” value [1, 6]?
Answer: 278 ng/mL

Question: And the concentration in plasma [1, 7]?
Answer: 132 ng/mL and 290 ng/mL and 287 ng/mL

Question: And the “concentration in plasma, Mean” value [1, 8]?
Answer: 236 ng/mL

Question: What about the concentration in plasma [1, 9] of the same molecule?
Answer: 118 ng/mL and 206 ng/mL and 176 ng/mL

Question: What about the “concentration in plasma, Mean” value [1, 10] of the same molecule?
Answer: 167 ng/mL

Question: And the concentration in plasma [1, 11]?
Answer: 106 ng/mL and 175 ng/mL and 55.8 ng/mL

Question: And the “concentration in plasma, Mean” value [1, 12]?
Answer: 112 ng/mL

Question: What about the concentration in plasma [1, 13] of the same molecule?
Answer: 104 ng/mL and 116 ng/mL and 69.3 ng/mL

Question: And the “concentration in plasma, Mean” value [1, 14]?
Answer: 96.4 ng/mL

Question: And the concentration in plasma [1, 15]?
Answer: 40.8 ng/mL and 34.5 ng/mL and 34.1 ng/mL

Question: What about the “concentration in plasma, Mean” value [1, 16] of the same molecule?
Answer: 36.5 ng/mL

Question: What about the concentration in plasma [1, 17] of the same molecule?
Answer: BLOQ (BLOQ = below limit of quantitation (0.2 ng/mL))

Question: And the AUCInf [1, 18]?
Answer: 965 ng·h/mL and 1132 ng·h/mL and 898 ng·h/mL

Question: What about the AUClast [1, 18] of the same molecule?
Answer: 725 ng·h/mL and 1007 ng·h/mL and 709 ng·h/mL

Question: And the AUClast/D [1, 18]?
Answer: 72.5 kg·ng·h/mL/mg and 101 kg·ng·h/mL/mg and 70.9 kg·ng·h/mL/mg

Question: And the “AUC—% Extrap_obs” value [1, 18]?
Answer: 24.9% and 11.1% and 21.0%

Question: And the Cmax [1, 18]?
Answer: 138 ng/mL and 290 ng/mL and 438 ng/mL

Question: And the MRTInf_obs [1, 18]?
Answer: 5.88 h and 3.67 h and 4.80 h

Question: And the T1/2 [1, 18]?
Answer: 4.08 h and 2.52 h and 3.83 h

Question: And the Tmax [1, 18]?
Answer: 0.25 h (2×) and 0.5 h

Question: What about the “AUCInf, Mean” value [1, 19] of the same molecule?
Answer: 998 ng·h/mL

Question: And the “AUClast, Mean” value [1, 19]?
Answer: 814 ng·h/mL

Question: And the AUClast/D, Mean [1, 19]?
Answer: 81 kg·ng·h/mL/mg

Question: What about the “AUC—% Extrap_obs, Mean” value [1, 19] of the same molecule?
Answer: 19.0%

Question: What about the “Cmax, Mean” value [1, 19] of the same molecule?
Answer: 289 ng/mL

Question: What about the “MRTInf_obs, Mean” value [1, 19] of the same molecule?
Answer: 4.78 h

Question: What about the “T1/2, Mean” value [1, 19] of the same molecule?
Answer: 3.48 h

Question: And the “Tmax, Mean” value [1, 19]?
Answer: 0.333 h

Question: What about the solubility in water [2] of the same molecule?
Answer: approximately 11.0 mg/mL

Question: And the “hygroscopicity (DVS)” value [3]?
Answer: slightly hygroscopic

Question: What about the “solid form after DVS test” value [3] of the same molecule?
Answer: does not change

Question: And the “water absorbed in DVS” value [3]?
Answer: about 0.085 wt %

Question: With `COc1cc2c(cc1OC)[C@@H]1Cc3ccc(O)c(OC)c3CN1CC2.O=C(O)C(=O)O` [TLZ-16 oxalate] as the molecule, how does the F [1, 20] read?
Answer: 18.5% and 28.8% and 25.3%

Question: What about the “F, Mean” value [1, 21] of the same molecule?
Answer: 24.2%

Question: And the concentration in plasma [1, 4]?
Answer: BLOQ (BLOQ = below limit of quantitation (0.2 ng/mL))

Question: What about the concentration in plasma [1, 5] of the same molecule?
Answer: 302 ng/mL and 368 ng/mL and 131 ng/mL

Question: What about the “concentration in plasma, Mean” value [1, 6] of the same molecule?
Answer: 267 ng/mL

Question: What about the concentration in plasma [1, 7] of the same molecule?
Answer: 270 ng/mL and 309 ng/mL and 148 ng/mL

Question: And the “concentration in plasma, Mean” value [1, 8]?
Answer: 242 ng/mL

Question: What about the concentration in plasma [1, 9] of the same molecule?
Answer: 143 ng/mL and 200 ng/mL and 121 ng/mL

Question: And the “concentration in plasma, Mean” value [1, 10]?
Answer: 155 ng/mL

Question: And the concentration in plasma [1, 11]?
Answer: 70.8 ng/mL and 86.0 ng/mL and 156 ng/mL

Question: What about the “concentration in plasma, Mean” value [1, 12] of the same molecule?
Answer: 104 ng/mL

Question: What about the concentration in plasma [1, 13] of the same molecule?
Answer: 63.1 ng/mL and 120 ng/mL and 95.0 ng/mL

Question: And the “concentration in plasma, Mean” value [1, 14]?
Answer: 92.7 ng/mL

Question: What about the concentration in plasma [1, 15] of the same molecule?
Answer: 10.1 ng/mL and 56.8 ng/mL and 29.1 ng/mL

Question: And the “concentration in plasma, Mean” value [1, 16]?
Answer: 32.0 ng/mL

Question: What about the concentration in plasma [1, 17] of the same molecule?
Answer: BLOQ (BLOQ = below limit of quantitation (0.2 ng/mL))

Question: And the AUCInf [1, 20]?
Answer: 629 ng·h/mL and 1369 ng·h/mL and 859 ng·h/mL

Question: And the AUClast [1, 20]?
Answer: 600 ng·h/mL and 960 ng·h/mL and 756 ng·h/mL

Question: What about the AUClast/D [1, 20] of the same molecule?
Answer: 60 kg·ng·h/mL/mg and 96 kg·ng·h/mL/mg and 75.6 kg·ng·h/mL/mg

Question: And the “AUC—% Extrap_obs” value [1, 20]?
Answer: 4.67% and 29.8% and 12.0%

Question: What about the Cmax [1, 20] of the same molecule?
Answer: 302 ng/mL and 368 ng/mL and 156 ng/mL

Question: And the MRTInf_obs [1, 20]?
Answer: 2.59 h and 6.60 h and 3.95 h

Question: And the T1/2 [1, 20]?
Answer: 2.02 h and 4.98 h and 2.46 h

Question: What about the Tmax [1, 20] of the same molecule?
Answer: 0.25 h (2×) and 2 h

Question: And the “AUCInf, Mean” value [1, 21]?
Answer: 952 ng·h/mL

Question: And the “AUClast, Mean” value [1, 21]?
Answer: 772 ng·h/mL

Question: What about the AUClast/D, Mean [1, 21] of the same molecule?
Answer: 77.2 kg·ng·h/mL/mg

Question: What about the “AUC—% Extrap_obs, Mean” value [1, 21] of the same molecule?
Answer: 15.5%

Question: And the “Cmax, Mean” value [1, 21]?
Answer: 275 ng/mL

Question: What about the “MRTInf_obs, Mean” value [1, 21] of the same molecule?
Answer: 4.38 h

Question: And the “T1/2, Mean” value [1, 21]?
Answer: 3.15 h

Question: And the “Tmax, Mean” value [1, 21]?
Answer: 0.833 h

Question: And the solubility in water [2]?
Answer: approximately 19.2 mg/mL

Question: And the “hygroscopicity (DVS)” value [3]?
Answer: slightly hygroscopic

Question: What about the “solid form after DVS test” value [3] of the same molecule?
Answer: does not change

Question: What about the “water absorbed in DVS” value [3] of the same molecule?
Answer: about 0.25 wt %
